# Experimental data: patent US6852673B2, “Herbicidal pyridine compounds” (BASF Aktiengesellschaft, priority 1998, dated 2005)
# Columns and labels:
# Type in all cases: in vivo
# Glycine max (GLXMA) = assay: Pre-emergence herbicidal evaluation, soyabeans
# From the text: (§1) The pre-emergence herbicidal activity of the compounds of the present invention is exemplified by the following test in which the seeds of a variety of monocotyledonous and dicotyledonous plants are seperately mixed with potting soil and planted on top of approximately one inch of soil in separate pots. After planting, the pots are sprayed with the selected aqueous acetone solution containing test compound in sufficient quantity to provide the equivalent of about 0.0125 to 0.4 kg per hectare of test compound per pot. The treated pots are then placed on greenhouse benches, watered and cared for in accordance with conventional greenhouse procedures. From 2 to 4 weeks after treatment, the tests are terminated and each pot is examined and rated according to the rating system set forth below.
# Hordeum vulgare (HORVW) [1] = assay: Pre-emergence herbicidal evaluation, winter barley
# From the text: as §1
# Oryza sativum (ORYSA) [2] = assay: Pre-emergence herbicidal evaluation, rice
# From the text: as §1
# [3] = test system: Triticum aestivum (TRZAW); assay: Pre-emergence herbicidal evaluation, winter wheat
# From the text: as §1
# Zea mays (ZEAMX) [4] = assay: Pre-emergence herbicidal evaluation, maize
# From the text: as §1
# Galium aparine (GALAP) = assay: Pre-emergence herbicidal evaluation, cleaver
# From the text: as §1
# Lamium purpureum (LAMPU) [5] = assay: Pre-emergence herbicidal evaluation, purple deadnettle
# From the text: as §1
# Solanum nigrum (SOLNI) [6] = assay: Pre-emergence herbicidal evaluation, black nightshade
# From the text: as §1
# Stellaria media (STEME) = assay: Pre-emergence herbicidal evaluation, chickweed
# From the text: as §1
# [7] = test system: Alopecurus myosuroides (ALOMY); assay: Pre-emergence herbicidal evaluation, black grass
# From the text: as §1
# [8] = test system: Echinochloa grus galli (ECHCG); assay: Pre-emergence herbicidal evaluation, barnyard grass
# From the text: as §1
# Setaria viridis (SETVI) = assay: Pre-emergence herbicidal evaluation, green foxtail
# From the text: as §1
# Hordeum vulgare (HORVW) [9] = assay: Post-emergence herbicidal evaluation, winter barley; conditions: rated 2 to 4 weeks after treatment
# Procedure: (§2) [table] [table] […] These acetone solutions are diluted with water and the resulting formulations applied at dosage levels equivalent of about 0.03 to 0.4 kg per hectare of test compound per pot. After spraying the plants are placed on greenhouse benches and are cared for in the usual manner, commensurate with conventional greenhouse practices. From 2 to 4 weeks after treatment, the seedling plants are examined and rated according to the rating system provided above. A rating 0 indicates growth as untreated control, a rating 9 indicates death.
# Oryza sativum (ORYSA) [10] = assay: Post-emergence herbicidal evaluation, rice; conditions: rated 2 to 4 weeks after treatment
# Procedure: as §2
# [11] = test system: Triticum aestivum (TRZAW); assay: Post-emergence herbicidal evaluation, winter wheat; conditions: rated 2 to 4 weeks after treatment
# Procedure: as §2
# Zea mays (ZEAMX) [12] = assay: Post-emergence herbicidal evaluation, maize; conditions: rated 2 to 4 weeks after treatment
# Procedure: as §2
# [13] = test system: Abutilon theophrasti (ABUTH); assay: Post-emergence herbicidal evaluation, velvetleaf; conditions: rated 2 to 4 weeks after treatment
# Procedure: as §2
# [14] = test system: Ambrosia artemiisifolia (AMBEL); assay: Post-emergence herbicidal evaluation, ragweed; conditions: rated 2 to 4 weeks after treatment
# Procedure: as §2
# [15] = test system: Ipomoea hederacea (IPOHE); assay: Post-emergence herbicidal evaluation, morning glory; conditions: rated 2 to 4 weeks after treatment
# Procedure: as §2
# Lamium purpureum (LAMPU) [16] = assay: Post-emergence herbicidal evaluation, purple deadnettle; conditions: rated 2 to 4 weeks after treatment
# Procedure: as §2
# [17] = test system: Matricaria inodora (MATIN); assay: Post-emergence herbicidal evaluation, mayweed; conditions: rated 2 to 4 weeks after treatment
# Procedure: as §2
# Solanum nigrum (SOLNI) [18] = assay: Post-emergence herbicidal evaluation, black nightshade; conditions: rated 2 to 4 weeks after treatment
# Procedure: as §2
# [19] = test system: Alopecurus myosuroides (ALOMY); assay: Post-emergence herbicidal evaluation, black grass; conditions: rated 2 to 4 weeks after treatment
# Procedure: as §2
# [20] = test system: Digitaria sanguinalis (DIGSA); assay: Post-emergence herbicidal evaluation, large crabgrass; conditions: rated 2 to 4 weeks after treatment
# Procedure: as §2
# [21] = test system: Echinochloa grus galli (ECHCG); assay: Post-emergence herbicidal evaluation, barnyard grass; conditions: rated 2 to 4 weeks after treatment
# Procedure: as §2
compound,measurement,setting,value
CC(Cl)=CCOc1cc(C)cc(Oc2cc(C(F)(F)F)nn2C)n1 [Example 11],selectivity in soybeans,Glycine max (GLXMA),quite selective
same,GLXMA rating,Glycine max (GLXMA); dose 0.013 kg/ha,0 (0 - No effect)
same,GLXMA rating,Glycine max (GLXMA); dose 0.025 kg/ha,1 (1 - Trace effect)
same,GLXMA rating,Glycine max (GLXMA); dose 0.1 kg/ha,2 (2 - Slight effect)
same,GLXMA rating,Glycine max (GLXMA); dose 0.4 kg/ha,4 (4 - Injury)
same,HORVW rating,Hordeum vulgare (HORVW) [1]; dose 0.013 kg/ha,3 (3 - Moderate effect)
same,HORVW rating,Hordeum vulgare (HORVW) [1]; dose 0.025 kg/ha,3 (3 - Moderate effect)
same,HORVW rating,Hordeum vulgare (HORVW) [1]; dose 0.1 kg/ha,3 (3 - Moderate effect)
same,HORVW rating,Hordeum vulgare (HORVW) [1]; dose 0.4 kg/ha,6 (6 - Herbicidal effect)
same,ORYSA rating,Oryza sativum (ORYSA) [2]; dose 0.013 kg/ha,1 (1 - Trace effect)
same,ORYSA rating,Oryza sativum (ORYSA) [2]; dose 0.025 kg/ha,1 (1 - Trace effect)
same,ORYSA rating,Oryza sativum (ORYSA) [2]; dose 0.1 kg/ha,2 (2 - Slight effect)
same,ORYSA rating,Oryza sativum (ORYSA) [2]; dose 0.4 kg/ha,3 (3 - Moderate effect)
same,TRZAW rating,[3]; dose 0.013 kg/ha,0 (0 - No effect)
same,TRZAW rating,[3]; dose 0.025 kg/ha,2 (2 - Slight effect)
same,TRZAW rating,[3]; dose 0.1 kg/ha,2 (2 - Slight effect)
same,TRZAW rating,[3]; dose 0.4 kg/ha,4 (4 - Injury)
same,ZEAMX rating,Zea mays (ZEAMX) [4]; dose 0.013 kg/ha,1 (1 - Trace effect)
same,ZEAMX rating,Zea mays (ZEAMX) [4]; dose 0.025 kg/ha,2 (2 - Slight effect)
same,ZEAMX rating,Zea mays (ZEAMX) [4]; dose 0.1 kg/ha,3 (3 - Moderate effect)
same,ZEAMX rating,Zea mays (ZEAMX) [4]; dose 0.4 kg/ha,5 (5 - Definite injury)
same,GALAP rating,Galium aparine (GALAP); dose 0.013 kg/ha,1 (1 - Trace effect)
same,GALAP rating,Galium aparine (GALAP); dose 0.025 kg/ha,3 (3 - Moderate effect)
same,GALAP rating,Galium aparine (GALAP); dose 0.1 kg/ha,6 (6 - Herbicidal effect)
same,GALAP rating,Galium aparine (GALAP); dose 0.4 kg/ha,8 (8 - Approaching complete kill)
same,LAMPU rating,Lamium purpureum (LAMPU) [5]; dose 0.013 kg/ha,5 (5 - Definite injury)
same,LAMPU rating,Lamium purpureum (LAMPU) [5]; dose 0.025 kg/ha,8 (8 - Approaching complete kill)
same,LAMPU rating,Lamium purpureum (LAMPU) [5]; dose 0.1 kg/ha,8 (8 - Approaching complete kill)
same,LAMPU rating,Lamium purpureum (LAMPU) [5]; dose 0.4 kg/ha,9 (9 - Complete kill)
same,SOLNI rating,Solanum nigrum (SOLNI) [6]; dose 0.013 kg/ha,5 (5 - Definite injury)
same,SOLNI rating,Solanum nigrum (SOLNI) [6]; dose 0.025 kg/ha,7 (7 - Good herbicidal effect)
same,SOLNI rating,Solanum nigrum (SOLNI) [6]; dose 0.1 kg/ha,8 (8 - Approaching complete kill)
same,SOLNI rating,Solanum nigrum (SOLNI) [6]; dose 0.4 kg/ha,9 (9 - Complete kill)
same,activity against Stellaria,Stellaria media (STEME),superior activity
same,STEME rating,Stellaria media (STEME); dose 0.013 kg/ha,8 (8 - Approaching complete kill)
same,STEME rating,Stellaria media (STEME); dose 0.025 kg/ha,9 (9 - Complete kill)
same,STEME rating,Stellaria media (STEME); dose 0.1 kg/ha,9 (9 - Complete kill)
same,STEME rating,Stellaria media (STEME); dose 0.4 kg/ha,9 (9 - Complete kill)
same,ALOMY rating,[7]; dose 0.013 kg/ha,6 (6 - Herbicidal effect)
same,ALOMY rating,[7]; dose 0.025 kg/ha,9 (9 - Complete kill)
same,ALOMY rating,[7]; dose 0.1 kg/ha,9 (9 - Complete kill)
same,ALOMY rating,[7]; dose 0.4 kg/ha,9 (9 - Complete kill)
same,ECHCG rating,[8]; dose 0.013 kg/ha,4 (4 - Injury)
same,ECHCG rating,[8]; dose 0.025 kg/ha,6 (6 - Herbicidal effect)
same,ECHCG rating,[8]; dose 0.1 kg/ha,8 (8 - Approaching complete kill)
same,ECHCG rating,[8]; dose 0.4 kg/ha,9 (9 - Complete kill)
same,activity against Setaria,Setaria viridis (SETVI),superior activity
same,SETVI rating,Setaria viridis (SETVI); dose 0.013 kg/ha,7 (7 - Good herbicidal effect)
same,SETVI rating,Setaria viridis (SETVI); dose 0.025 kg/ha,8 (8 - Approaching complete kill)
same,SETVI rating,Setaria viridis (SETVI); dose 0.1 kg/ha,9 (9 - Complete kill)
same,SETVI rating,Setaria viridis (SETVI); dose 0.4 kg/ha,9 (9 - Complete kill)
same,HORVW rating,Hordeum vulgare (HORVW) [9]; dose 0.03 kg/ha,3 (3 - Moderate effect)
same,HORVW rating,Hordeum vulgare (HORVW) [9]; dose 0.1 kg/ha,4 (4 - Injury)
same,HORVW rating,Hordeum vulgare (HORVW) [9]; dose 0.4 kg/ha,4 (4 - Injury)
same,ORYSA rating,Oryza sativum (ORYSA) [10]; dose 0.03 kg/ha,1 (1 - Trace effect)
same,ORYSA rating,Oryza sativum (ORYSA) [10]; dose 0.1 kg/ha,3 (3 - Moderate effect)
same,ORYSA rating,Oryza sativum (ORYSA) [10]; dose 0.4 kg/ha,4 (4 - Injury)
same,TRZAW rating,[11]; dose 0.03 kg/ha,3 (3 - Moderate effect)
same,TRZAW rating,[11]; dose 0.1 kg/ha,3 (3 - Moderate effect)
same,TRZAW rating,[11]; dose 0.4 kg/ha,3 (3 - Moderate effect)
same,ZEAMX rating,Zea mays (ZEAMX) [12]; dose 0.03 kg/ha,2 (2 - Slight effect)
same,ZEAMX rating,Zea mays (ZEAMX) [12]; dose 0.1 kg/ha,5 (5 - Definite injury)
same,ZEAMX rating,Zea mays (ZEAMX) [12]; dose 0.4 kg/ha,5 (5 - Definite injury)
same,ABUTH rating,[13]; dose 0.03 kg/ha,5 (5 - Definite injury)
same,ABUTH rating,[13]; dose 0.1 kg/ha,7 (7 - Good herbicidal effect)
same,ABUTH rating,[13]; dose 0.4 kg/ha,8 (8 - Approaching complete kill)
same,AMBEL rating,[14]; dose 0.03 kg/ha,3 (3 - Moderate effect)
same,AMBEL rating,[14]; dose 0.1 kg/ha,7 (7 - Good herbicidal effect)
same,AMBEL rating,[14]; dose 0.4 kg/ha,8 (8 - Approaching complete kill)
same,IPOHE rating,[15]; dose 0.03 kg/ha,6 (6 - Herbicidal effect)
same,IPOHE rating,[15]; dose 0.1 kg/ha,9 (9 - Complete kill)
same,IPOHE rating,[15]; dose 0.4 kg/ha,9 (9 - Complete kill)
same,LAMPU rating,Lamium purpureum (LAMPU) [16]; dose 0.03 kg/ha,0 (0 - No effect)
same,LAMPU rating,Lamium purpureum (LAMPU) [16]; dose 0.1 kg/ha,3 (3 - Moderate effect)
same,LAMPU rating,Lamium purpureum (LAMPU) [16]; dose 0.4 kg/ha,8 (8 - Approaching complete kill)
same,MATIN rating,[17]; dose 0.03 kg/ha,7 (7 - Good herbicidal effect)
same,MATIN rating,[17]; dose 0.1 kg/ha,8 (8 - Approaching complete kill)
same,MATIN rating,[17]; dose 0.4 kg/ha,8 (8 - Approaching complete kill)
same,SOLNI rating,Solanum nigrum (SOLNI) [18]; dose 0.03 kg/ha,3 (3 - Moderate effect)
same,SOLNI rating,Solanum nigrum (SOLNI) [18]; dose 0.1 kg/ha,6 (6 - Herbicidal effect)
same,SOLNI rating,Solanum nigrum (SOLNI) [18]; dose 0.4 kg/ha,8 (8 - Approaching complete kill)
same,ALOMY rating,[19]; dose 0.03 kg/ha,6 (6 - Herbicidal effect)
same,ALOMY rating,[19]; dose 0.1 kg/ha,8 (8 - Approaching complete kill)
same,ALOMY rating,[19]; dose 0.4 kg/ha,8 (8 - Approaching complete kill)
same,DIGSA rating,[20]; dose 0.03 kg/ha,9 (9 - Complete kill)
same,DIGSA rating,[20]; dose 0.1 kg/ha,9 (9 - Complete kill)
same,DIGSA rating,[20]; dose 0.4 kg/ha,9 (9 - Complete kill)
same,ECHCG rating,[21]; dose 0.03 kg/ha,8 (8 - Approaching complete kill)
same,ECHCG rating,[21]; dose 0.1 kg/ha,8 (8 - Approaching complete kill)
same,ECHCG rating,[21]; dose 0.4 kg/ha,8 (8 - Approaching complete kill)
